Earlier results, collected in publication PMC3433420 (PLoS ONE, 2012).
Like-named read-outs stand apart in the source and are kept apart here.

Target: SH2 and PTB domains
Settings: cited from earlier work
Description: Supplement pone.0044471.s022.xlsx, sheet "Most recent PM interactions" | column: Kd || Supplement pone.0044471.s022.xlsx, sheet "All original PM interactions" | column: Kd

[1] = Protein ABL2, most recent PM interactions, ref Jones et al. 2006 / Kaushansky et al. Mol Biosys 2008 / Kaushansky et al. Chem and Biol 2008
[2] = Protein BLK, most recent PM interactions, ref Jones et al. 2006 / Kaushansky et al. Mol Biosys 2008 / Kaushansky et al. Chem and Biol 2008
[3] = Protein RASA1-N, most recent PM interactions, ref Jones et al. 2006 / Kaushansky et al. Mol Biosys 2008 / Kaushansky et al. Chem and Biol 2008
[4] = Protein SHB, most recent PM interactions, ref Jones et al. 2006 / Kaushansky et al. Mol Biosys 2008 / Kaushansky et al. Chem and Biol 2008
[5] = Protein SYK-NC, most recent PM interactions, ref Jones et al. 2006 / Kaushansky et al. Mol Biosys 2008 / Kaushansky et al. Chem and Biol 2008
[6] = Protein YES1, most recent PM interactions, ref Jones et al. 2006 / Kaushansky et al. Mol Biosys 2008 / Kaushansky et al. Chem and Biol 2008
[7] = Protein CRK, most recent PM interactions, ref Jones et al. 2006 / Kaushansky et al. Mol Biosys 2008 / Kaushansky et al. Chem and Biol 2008
[8] = Protein SHC1-PTB, most recent PM interactions, ref Jones et al. 2006 / Kaushansky et al. Mol Biosys 2008 / Kaushansky et al. Chem and Biol 2008
[9] = Protein SHC2-PTB, most recent PM interactions, ref Jones et al. 2006 / Kaushansky et al. Mol Biosys 2008 / Kaushansky et al. Chem and Biol 2008
[10] = protein ABL2, ref Kaushansky et al. Chem and Biol 2008

ELMTFGSKPpYDGIPASEd [ErbB1 915]
Kd [1]: 0.18 µM
Kd [2]: 1.18 µM
Kd [3]: 1.41 µM
Kd [4]: 1.06 µM
Kd [5]: 1.55 µM
Kd [6]: 0.33 µM

GTPTAENPEpYLGLDVPV [ErbB2 1248]
Kd (Protein ABL2, most recent PM interactions, ref Jones et al. 2006 / Kaushansky et al. Chem and Biol 2008): 0.21 µM
Kd (Protein SHC1-PTB, most recent PM interactions, ref Jones et al. 2006 / Kaushansky et al. Chem and Biol 2008): 0.28 µM

MDDVVDADEpYLIPQQGFd [ErbB1 1016]
Kd [1]: 0.28 µM
Kd [2]: 0.66 µM
Kd [7]: 0.47 µM
Kd (Protein CRKL, most recent PM interactions, ref Jones et al. 2006 / Kaushansky et al. Mol Biosys 2008 / Kaushansky et al. Chem and Biol 2008): 1 µM
Kd (Protein NCK1, most recent PM interactions, ref Jones et al. 2006 / Kaushansky et al. Mol Biosys 2008 / Kaushansky et al. Chem and Biol 2008): 1 µM
Kd (Protein PIK3R1-C, most recent PM interactions, ref Jones et al. 2006 / Kaushansky et al. Mol Biosys 2008 / Kaushansky et al. Chem and Biol 2008): 0.87 µM
Kd (Protein PIK3R1-N, most recent PM interactions, ref Jones et al. 2006 / Kaushansky et al. Mol Biosys 2008 / Kaushansky et al. Chem and Biol 2008): 0.9 µM
Kd (Protein PIK3R1-NC, most recent PM interactions, ref Jones et al. 2006 / Kaushansky et al. Mol Biosys 2008 / Kaushansky et al. Chem and Biol 2008): 0.18 µM
Kd (Protein PIK3R2-N, most recent PM interactions, ref Jones et al. 2006 / Kaushansky et al. Mol Biosys 2008 / Kaushansky et al. Chem and Biol 2008): 0.42 µM
Kd (Protein PIK3R2-NC, most recent PM interactions, ref Jones et al. 2006 / Kaushansky et al. Mol Biosys 2008 / Kaushansky et al. Chem and Biol 2008): 0.35 µM
Kd (Protein PIK3R3-C, most recent PM interactions, ref Jones et al. 2006 / Kaushansky et al. Mol Biosys 2008 / Kaushansky et al. Chem and Biol 2008): 0.19 µM
Kd (Protein PIK3R3-N, most recent PM interactions, ref Jones et al. 2006 / Kaushansky et al. Mol Biosys 2008 / Kaushansky et al. Chem and Biol 2008): 0.72 µM
Kd (Protein PIK3R3-NC, most recent PM interactions, ref Jones et al. 2006 / Kaushansky et al. Mol Biosys 2008 / Kaushansky et al. Chem and Biol 2008): 0.2 µM
Kd (Protein PLCG1-NC, most recent PM interactions, ref Jones et al. 2006 / Kaushansky et al. Mol Biosys 2008 / Kaushansky et al. Chem and Biol 2008): 0.79 µM
Kd (Protein PTPN11-N, most recent PM interactions, ref Jones et al. 2006 / Kaushansky et al. Mol Biosys 2008 / Kaushansky et al. Chem and Biol 2008): 0.38 µM
Kd [3]: 0.49 µM
Kd (Protein RASA1-NC, most recent PM interactions, ref Jones et al. 2006 / Kaushansky et al. Mol Biosys 2008 / Kaushansky et al. Chem and Biol 2008): 1.42 µM
Kd [4]: 1.99 µM
Kd [8]: 0.63 µM
Kd [9]: 0.66 µM
Kd (Protein SHC3, most recent PM interactions, ref Jones et al. 2006 / Kaushansky et al. Mol Biosys 2008 / Kaushansky et al. Chem and Biol 2008): 0.22 µM
Kd (Protein SYK-C, most recent PM interactions, ref Jones et al. 2006 / Kaushansky et al. Mol Biosys 2008 / Kaushansky et al. Chem and Biol 2008): 0.93 µM
Kd [5]: 0.61 µM
Kd (Protein TNS4, most recent PM interactions, ref Jones et al. 2006 / Kaushansky et al. Mol Biosys 2008 / Kaushansky et al. Chem and Biol 2008): 0.92 µM
Kd (Protein VAV1, most recent PM interactions, ref Jones et al. 2006 / Kaushansky et al. Mol Biosys 2008 / Kaushansky et al. Chem and Biol 2008): 1.05 µM
Kd (Protein VAV2, most recent PM interactions, ref Jones et al. 2006 / Kaushansky et al. Mol Biosys 2008 / Kaushansky et al. Chem and Biol 2008): 0.085 µM

PSSGpYMPMNQGNd [ErbB3 pY1054, N-terminally rhodamine-labeled 13-mer phosphopeptide]
Kd (Protein ABL2, original PM interactions, ref Jones et al. 2006 / Kaushansky et al. Chem and Biol 2008): 0.17 µM
Kd (Protein ITK, original PM interactions, ref Jones et al. 2006 / Kaushansky et al. Chem and Biol 2008): 1.67 µM
Kd (Protein PIK3R1-C, original PM interactions, ref Jones et al. 2006 / Kaushansky et al. Chem and Biol 2008): 1 µM
Kd (Protein PIK3R1-N, original PM interactions, ref Jones et al. 2006 / Kaushansky et al. Chem and Biol 2008): 0.57 µM
Kd (Protein PIK3R1-NC, original PM interactions, ref Jones et al. 2006 / Kaushansky et al. Chem and Biol 2008): 0.11 µM
Kd (Protein PIK3R2-N, original PM interactions, ref Jones et al. 2006 / Kaushansky et al. Chem and Biol 2008): 1 µM
Kd (Protein PIK3R2-NC, original PM interactions, ref Jones et al. 2006 / Kaushansky et al. Chem and Biol 2008): 0.09 µM
Kd (Protein PIK3R3-C, original PM interactions, ref Jones et al. 2006 / Kaushansky et al. Chem and Biol 2008): 0.11 µM
Kd (Protein PIK3R3-N, original PM interactions, ref Jones et al. 2006 / Kaushansky et al. Chem and Biol 2008): 1 µM
Kd (Protein PIK3R3-NC, original PM interactions, ref Jones et al. 2006 / Kaushansky et al. Chem and Biol 2008): 0.05 µM
Kd (Protein SHB, original PM interactions, ref Jones et al. 2006 / Kaushansky et al. Chem and Biol 2008): 1.37 µM
Kd (Protein SHC1-PTB, original PM interactions, ref Jones et al. 2006 / Kaushansky et al. Chem and Biol 2008): 2 µM
Kd (Protein SHF, original PM interactions, ref Jones et al. 2006 / Kaushansky et al. Chem and Biol 2008): 1.23 µM
Kd (Protein SYK-C, original PM interactions, ref Jones et al. 2006 / Kaushansky et al. Chem and Biol 2008): 1.18 µM

GSKPpYDGIPASEd [ErbB1 pY915, N-terminally rhodamine-labeled 13-mer phosphopeptide]
Kd (protein ABL2, ref Jones et al. 2006 / Kaushansky et al. Mol Biosys 2008 / Kaushansky et al. Chem and Biol 2008): 0.14 µM
Kd (protein BLK, ref Jones et al. 2006 / Kaushansky et al. Mol Biosys 2008 / Kaushansky et al. Chem and Biol 2008): 1.18 µM
Kd (protein RASA1-N, ref Jones et al. 2006 / Kaushansky et al. Mol Biosys 2008 / Kaushansky et al. Chem and Biol 2008): 1.47 µM
Kd (protein SHB, ref Jones et al. 2006 / Kaushansky et al. Mol Biosys 2008 / Kaushansky et al. Chem and Biol 2008): 1.06 µM
Kd (protein SYK-NC, ref Jones et al. 2006 / Kaushansky et al. Mol Biosys 2008 / Kaushansky et al. Chem and Biol 2008): 1.55 µM
Kd (protein YES1, ref Jones et al. 2006 / Kaushansky et al. Mol Biosys 2008 / Kaushansky et al. Chem and Biol 2008): 0.33 µM

HQISLDNPDpYQQDFFPKd [ErbB1 1172]
Kd [1]: 0.49 µM
Kd [3]: 1.14 µM
Kd [8]: 0.04 µM
Kd [9]: 1.31 µM
Kd [5]: 1.28 µM

NPAPSRDPHpYQDPHSTAd [ErbB1 1125]
Kd [1]: 0.074 µM
Kd (Protein BMX, most recent PM interactions, ref Jones et al. 2006 / Kaushansky et al. Mol Biosys 2008 / Kaushansky et al. Chem and Biol 2008): 1.07 µM
Kd [7]: 1.23 µM
Kd [3]: 1.32 µM
Kd [4]: 0.99 µM
Kd [5]: 0.98 µM
Kd (Protein TNS1, most recent PM interactions, ref Jones et al. 2006 / Kaushansky et al. Mol Biosys 2008 / Kaushansky et al. Chem and Biol 2008): 1.28 µM
Kd [6]: 0.38 µM

DNPDpYWNHSLPPd [ErbB4 pY1242, N-terminally rhodamine-labeled 13-mer phosphopeptide]
Kd [10]: 0.034 µM
Kd (protein SHC1-PTB, ref Kaushansky et al. Chem and Biol 2008): 0.51 µM

VSVPpYRAPTSTI [ErbB4 pY1081, N-terminally rhodamine-labeled 13-mer phosphopeptide]
Kd [10]: 1.23 µM
Kd (protein CRKL, ref Kaushansky et al. Chem and Biol 2008): 1.24 µM

STQRpYSADPTVFd [ErbB4 pY1128, N-terminally rhodamine-labeled 13-mer phosphopeptide]
Kd (protein SRC, ref Kaushansky et al. Chem and Biol 2008): 0.5 µM
